Measurements from patent publication US10392369B2, “N-[(pyrimidinyloxy)propanyl]benzamides” (Boehringer Ingelheim International GmbH, priority 2016, dated 2019).
Where two headings read alike, the source gives them in different places.

Experiments:
OX2R = biological target: T1, OX2R (Homo sapiens, UniProt O43614); details: cited from earlier work
T1 sequence (O43614 1-444): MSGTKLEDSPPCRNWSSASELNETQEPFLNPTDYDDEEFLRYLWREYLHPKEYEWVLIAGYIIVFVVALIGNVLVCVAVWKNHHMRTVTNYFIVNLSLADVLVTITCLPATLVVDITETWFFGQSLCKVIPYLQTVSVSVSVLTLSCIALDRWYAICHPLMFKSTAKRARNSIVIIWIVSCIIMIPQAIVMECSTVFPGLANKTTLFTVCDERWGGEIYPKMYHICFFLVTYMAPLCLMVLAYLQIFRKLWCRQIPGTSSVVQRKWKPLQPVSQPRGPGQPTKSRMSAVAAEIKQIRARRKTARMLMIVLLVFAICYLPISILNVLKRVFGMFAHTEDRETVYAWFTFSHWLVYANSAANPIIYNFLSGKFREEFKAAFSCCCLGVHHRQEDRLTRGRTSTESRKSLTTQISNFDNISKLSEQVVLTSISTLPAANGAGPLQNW

human Orexin 1 receptor = biological target: T2, human Orexin 1 receptor (Homo sapiens, UniProt O43613); test: Assay A: OX1R IP1 (in vitro OX1R potency); format: cell-based; details: for Kb: Table 3, read-out: Assay A OX1R Kb (Orexin A concentration); for OX1R potency compared to Example 91 in WO2016/034882 / OX1R selectivity over OX2R (selectivity ratio OX2R Kb/OX1R Kb) compared to Example 91 in WO2016/034882: versus Example 91 in WO2016/034882
T2 construct: stably expressing the full-length human Orexin 1 receptor; expressed in transfected cells; host or cells: CHO-K1 (CHO-K1/hOx1), co-expressing the aequorin photoprotein
T2 sequence (O43613 1-425): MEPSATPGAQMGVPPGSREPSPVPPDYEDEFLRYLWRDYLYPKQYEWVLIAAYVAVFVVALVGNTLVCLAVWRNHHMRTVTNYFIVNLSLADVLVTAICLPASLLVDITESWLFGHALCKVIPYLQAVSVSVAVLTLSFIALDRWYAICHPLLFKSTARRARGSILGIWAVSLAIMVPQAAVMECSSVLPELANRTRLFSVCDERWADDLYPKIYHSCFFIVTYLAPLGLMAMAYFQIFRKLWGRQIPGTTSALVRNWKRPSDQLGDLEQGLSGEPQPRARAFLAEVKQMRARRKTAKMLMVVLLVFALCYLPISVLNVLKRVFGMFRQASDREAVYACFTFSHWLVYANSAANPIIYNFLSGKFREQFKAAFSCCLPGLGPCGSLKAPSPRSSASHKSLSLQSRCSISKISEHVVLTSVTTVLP
Source text: Activation of the orexin receptors expressed in cell lines results in an increase in intracellular IP3 concentration. IP1, a downstream metabolite of IP3, accumulates in cells following receptor activation and is stable in the presence of LiCl. Using Homogeneous Time-Resolved Fluorescence technology with Lumi4-Tb cryptate (commercially available from Cisbio Bioassay.) and a suitable fluorescence plate reader. […] This technique is used to characterize pharmacological modification of the orexin receptors.
A. In Vitro Testing of OX1R Potency: OX1R IP1
IP1 measurements are performed in CHO-K1 cells stably expressing the full-length human Orexin 1 receptor and the aequorin photoprotein. Cells are cultivated in Ham's nutrient mixture F12 medium with 10% fetal calf serum, in a 37° C., 95% humidity and 5% CO2 incubator. The CHO-K1/hOx1 cell mass is expanded to larger cell numbers. The cells are obtained as frozen cells in cryo-vials and stored until use at −150° C. […] In preparation for the assay, 24 hours before the assay, the cells are thawed at 37° C. and immediately diluted with cell culture medium. After centrifugation, the cell pellet is re-suspended in medium and then distributed into the assay plates with a density of 10000 cells/25 μL per well. The plates are incubated for one hour at room temperature to reduce edge effects before they are incubated for 24 hours at 37° C./5% CO2. Compounds are prepared by an 8-point serial dilution in DMSO and a final dilution step into assay buffer (HBSS with 20 mM HEPES, 0.1% BSA and 50 mM LiCl, pH 7.4) to ensure a final DMSO concentration of 1% in the assay.
(§1) On the day of the assay, cells in the plate are washed twice with 60 μL assay buffer (20 μL buffer remained in the wells after washing), followed by adding 5 μL per well of compounds diluted in assay buffer. After 15 minutes of incubation at room temperature 5 μL per well of Orexin A peptide (final concentration: 0.5 nM and/or 50 nM) dissolved in assay buffer is added to the assay plate. The assay plate is incubated for 60 minutes at 37° C. Then 5 μl per well of Anti-IP1-Cryptate Tb solution and 5 μl per well of IP1-d2 dilution are added and the plate is incubated for a further 60 minutes light protected at room temperature.
(§2) 8-point four parametric non-linear curve fitting and determination of IC50 values and Hill slopes is performed using a regular analysis software e.g. AssayExplorer (Accelrys). In order to establish an agonist concentration independent parameter, Kb values are calculated using the following equation: IC50/((2+(A/EC50)^n)^1/n−1) (with A=concentration agonist, EC50=EC50 agonist, n=Hill slope agonist).

human orexin 2 receptor = biological target: T3, human orexin 2 receptor (Homo sapiens, UniProt O43614); test: Assay B: OX2R IP1 (in vitro OX2R potency); format: cell-based; details: Table 3; 0.5 nM Orexin A
T3 construct: stably expressing the full-length human orexin 2 receptor; expressed in transfected cells; host or cells: CHO-K1 (CHO-K1/hOx2), co-expressing the aequorin photoprotein
T3 sequence (O43614 1-444): T1 sequence (O43614 1-444)
Source text: Activation of the orexin receptors expressed in cell lines results in an increase in intracellular IP3 concentration. IP1, a downstream metabolite of IP3, accumulates in cells following receptor activation and is stable in the presence of LiCl. Using Homogeneous Time-Resolved Fluorescence technology with Lumi4-Tb cryptate (commercially available from Cisbio Bioassay.) and a suitable fluorescence plate reader. […] Chem. Genomics 2009, 3, 22-32. This technique is used to characterize pharmacological modification of the orexin receptors.
B. In Vitro Testing of OX2R Potency: OX2R IP1
IP1 measurements are performed in CHO-K1 cells stably expressing the full-length human orexin 2 receptor and the aequorin photoprotein. Cells are cultivated in Ham's nutrient mixture F12 medium with 10% fetal calf serum, in a 37° C., 95% humidity and 5% CO2 incubator. The CHO-K1/hOx2 cell mass is expanded to larger cell numbers. The cells are obtained as frozen cells in cryo-vials and stored until use at −150° C. The viability of the cells after thawing is >90%. In preparation for the assay, 24 hours before the assay, the cells are thawed at 37° C. and immediately diluted with cell culture medium. After centrifugation, the cell pellet is resuspended in medium and then distributed into the assay plates with a density of 5000 cells/25 μL per well. The plates are incubated for one hour at room temperature to reduce edge effects before they are incubated for 24 hours at 37° C./5% CO2. Compounds are prepared by a 8-point serial dilution in DMSO and a final dilution step into assay buffer (HBSS with 20 mM HEPES, 0.1% BSA and 50 mM LiCl, pH 7.4) to ensure a final DMSO concentration of 1% in the assay.
as §1, with “concentration: 0.5 nM) dissolved” for “concentration: 0.5 nM and/or 50 nM) dissolved”, “are added to all well of the plate and the” for “are added and the”, “room temperature. The emission at 615 nm and 665 nm (Excitation wavelength: 320 nm) are measured using an EnVision reader (PerkinElmer). The ratio between the emission at 665 nm and 615 is calculated by the reader.” for “room temperature.”
as §2, with “of […]” for “of IC50”, “slope agonist) (see P. Leff, I. G. Dougall, Trends Pharmacol. Sci. 1993, 14(4), 110-112).” for “slope agonist).”

Row | SMILES | OX2R pIC50 (OX2R; Table 3 of WO2016/034882) | IC50 (OX2R; corresponds to pIC50 of Table 3 of WO2016/034882) [µM] | OX2R Kb/OX1R Kb (human Orexin 1 receptor) | Kb (human Orexin 1 receptor; 50 nM Orexin A) [nM] | OX1R potency compared to Example 91 in WO2016/034882 (human Orexin 1 receptor; in words) | Kb (human orexin 2 receptor) [nM] | Kb (human Orexin 1 receptor; 0.5 nM Orexin A) [nM] | OX1R selectivity over OX2R (selectivity ratio OX2R Kb/OX1R Kb) compared to Example 91 in WO2016/034882 (human Orexin 1 receptor; in words) | OX1R selectivity compared to Example 14 in WO2016/034882 (human Orexin 1 receptor; in words, versus Example 14 in WO2016/034882)
1 | CC[C@@H](CNc1ncc(C(F)(F)F)cn1)N(C)C(=O)c1c(F)cccc1-n1nccn1 [Ex 91 in WO2016/ 034882] | < 5.1 | > 7.95 | – | – | – | – | – | – | –
2 | CCN(C(=O)c1cc(C)c(C)cc1-n1nccn1)[C@@H](C)COc1ncc(C(F)(F)F)cn1 [Example 2] | – | – | 87 | 0.39 | increase in OX1R potency | 34 | – | – | –
3 | CCN(C(=O)c1cc(C)ccc1-n1nccn1)[C@@H](C)COc1ncc(C(F)(F)F)cn1 [Example 5] | – | – | – | 1.1 | increase | 156 | 1 | increase | –
4 | CCN(C(=O)c1cccc(F)c1-n1nccn1)[C@@H](C)COc1ncc(C(F)(F)F)cn1 [Example 1] | – | – | – | 2.5 | – | 425 | 1.7 | more selective | –
5 | CCN(C(=O)c1ccccc1-c1ncccn1)[C@@H](C)COc1ncc(C(F)(F)F)cn1 [Example 28] | – | – | – | 0.74 | – | 176 | 0.62 | – | increase in OX1R selectivity
6 | CCN(C(=O)c1cc(C)ccc1-n1cccn1)[C@@H](C)COc1ncc(C(F)(F)F)cn1 [Example 8] | – | – | 228 | – | – | 502 | 2.2 | increase in OX1R selectivity | –
7 | CCN(C(=O)c1c(-n2nccn2)ccc(C)c1F)[C@@H](C)COc1ncc(C(F)(F)F)cn1 [Example 34] | – | – | 239 | – | increase in OX1R potency | 431 | 1.8 | increase in OX1R selectivity | –
8 | CCN(C(=O)c1ccccc1-n1nccn1)[C@@H](C)COc1ncc(C(F)(F)F)cn1 [Example 24] | – | – | – | 2.6 | – | 237 | 1.8 | – | –
9 | CCN(C(=O)c1cccc(C)c1-n1nccn1)[C@@H](C)COc1ncc(C(F)(F)F)cn1 [Example 11] | – | – | – | 1.4 | increase | 160 | 1.3 | increase | –
10 | CCN(C(=O)c1ccc(C)cc1-c1nnc(C)o1)[C@@H](C)COc1ncc(C(F)(F)F)cn1 [Example 19] | – | – | 909 | – | – | 6640 | 7.3 | increase in OX1R selectivity | –
